In patent US20230106174A1, “RAS INHIBITORS” (Revolution Medicines, Inc., priority 2021, published 2023):
One block for each compound: values may come before it.

What was measured:
[1] = biological target: K-Ras G13C (Homo sapiens, UniProt P01116+P62937, G13C); experiment: Raf-Ras (FRET or MOA) binding assay: disruption of BRAF RBD interaction with K-Ras G13C in presence of Cyclophilin A; format: biochemical; details: read-out: IC50 in the Raf-Ras (FRET or MOA) binding assay re: K-Ras G13C
Experimental: As used herein, the term “linker” refers to a divalent organic moiety connecting a first moiety (e.g., a macrocyclic moiety) to a second moiety (e.g., a cross-linking group). […] Compound is present in plate wells as a 10-point 3-fold dilution series starting at a final concentration of 30 μM. After incubation at 25° C. for 3 hours, a mixture of Anti-His Eu-W1024 and anti-GST allophycocyanin is then added to assay sample wells at final concentrations of 10 nM and 50 nM, respectively, and the reaction incubated for an additional 1.5 hours. TR-FRET signal is read on a microplate reader (Ex 320 nm, Em 665/615 nm). Compounds that facilitate disruption of a Ras:RAF complex are identified as those eliciting a decrease in the TR-FRET ratio relative to DMSO control wells.
Disruption of B-Raf Ras-Binding Domain (BRAF RBD) Interaction with K-Ras by Compounds of the Invention (Also Called a FRET Assay or an MOA Assay)
Note—The following protocol describes a procedure for monitoring disruption of K-Ras G12C (GMP-PNP) binding to BRAF^RBD by a compound of the invention. This protocol may also be executed substituting other Ras proteins or nucleotides.
The purpose of this biochemical assay was to measure the ability of test compounds to facilitate ternary complex formation between a nucleotide-loaded K-Ras isoform and Cyclophilin A; the resulting ternary complex disrupts binding to a BRAF^RBD Construct, inhibiting K-Ras signaling through a RAF effector. Data was reported as IC50 values.
In assay buffer containing 25 mM HEPES pH 7.3, 0.002% Tween20, 0.1% BSA, 100 mM NaCl and 5 mM MgCl2, tagless Cyclophilin A, His6-K-Ras-GMPPNP, and GST-BRAF^RBD were combined in a 384-well assay plate at final concentrations of 25 μM, 12.5 nM and 50 nM, respectively. Compound was present in plate wells as a 10-point 3-fold dilution series starting at a final concentration of 30 μM. […] TR-FRET signal was read on a microplate reader (Ex 320 nm, Em 665/615 nm). […]

[2] = biological target: T1, K-Ras G12C (Homo sapiens, UniProt P01116+P62937, G12C); experiment: pERK potency assay in NCI-H358 cells (AlphaLISA SureFire or In-Cell Western); format: cell-based; details: 4 hours incubation
T1 construct: endogenous in cells; host or cells: NCI-H358
Experimental: The purpose of this assay was to measure the ability of test compounds to inhibit K-Ras in cells. […] This procedure measures a decrease in cellular pERK in response to test compounds. The procedure described below in NCI-H358 cells is applicable to K-Ras G12C. […]
NCI-H358 cells were grown and maintained using media and procedures recommended by the ATCC. On the day prior to compound addition, cells were plated in 384-well cell culture plates (40 μl/well) and grown overnight in a 37° C., 5% CO2 incubator. Test compounds were prepared in 10, 3-fold dilutions in DMSO, with a high concentration of 10 mM. On the day of assay, 40 nL of test compound was added to each well of cell culture plate using an Echo550 liquid handler (LabCyte®). Concentrations of test compound were tested in duplicate. After compound addition, cells were incubated 4 hours at 37° C., 5% CO2. Following incubation, culture medium was removed and cells were washed once with phosphate buffered saline.
In some experiments, cellular pERK level was determined using the AlphaLISA SureFire Ultra p-ERK1/2 Assay Kit (PerkinElmer). Cells were lysed in 25 μL lysis buffer, with shaking at 600 RPM at room temperature. Lysate (10 μL) was transferred to a 384-well Opti-plate (PerkinElmer) and 5 μL acceptor mix was added. After a 2-hour incubation in the dark, 5 μL donor mix was added, the plate was sealed, and incubated 2 hours at room temperature. Signal was read on an Envision plate reader (PerkinElmer) using standard AlphaLISA settings. Analysis of raw data was carried out in Excel (Microsoft) and Prism (GraphPad). Signal was plotted vs. the decadal logarithm of compound concentration, and IC50 was determined by fitting a 4-parameter sigmoidal concentration response model.
In other experiments, cellular pERK was determined by In-Cell Western. Following compound treatment, cells were washed twice with 200 μL tris buffered saline (TBS) and fixed for 15 minutes with 150 μL 4% paraformaldehyde in TBS. Fixed cells were washed 4 times for 5 minutes with TBS containing 0.1% Triton X-100 (TBST) and then blocked with 100 μL Odyssey blocking buffer (LI-COR) for 60 minutes at room temperature. […] Cells were washed 4 times for 5 minutes with TBST. Secondary antibody (IR-800CW rabbit, LI-COR, diluted 1:800) and DNA stain DRAQ5 (LI-COR, diluted 1:2000) were added and incubated 1-2 hours at room temperature. Cells were washed 4 times for 5 minutes with TBST. Plates were scanned on a Li—COR Odyssey CLx Imager. Analysis of raw data was carried out in Excel (Microsoft) and Prism (GraphPad). Signal was plotted vs. the decadal logarithm of compound concentration, and IC50 was determined by fitting a 4-parameter sigmoidal concentration response model.

[3] = test system: NCI-H358 (K-Ras G12C); experiment: CellTiter-Glo cell viability assay, 5-day treatment, NCI-H358; format: cell-based; details: Homo sapiens, NCI-H358, 120 h
From the text: Determination of Cell Viability in RAS Mutant Cancer Cell Lines
Protocol: CellTiter-Glo® Cell Viability Assay
Note—The following protocol describes a procedure for monitoring cell viability of K-Ras mutant cancer cell lines in response to a compound of the invention. Other RAS isoforms may be employed, though the number of cells to be seeded will vary based on cell line used.
The purpose of this cellular assay was to determine the effects of test compounds on the proliferation of three human cancer cell lines (NCI-H358 (K-Ras G12C), AsPC-1 (K-Ras G12D), and Capan-1 (K-Ras G12V)) over a 5-day treatment period by quantifying the amount of ATP present at endpoint using the CellTiter-Glo® 2.0 Reagent (Promega).
Cells were seeded at 250 cells/well in 40 μL of growth medium in 384-well assay plates and incubated overnight in a humidified atmosphere of 5% CO2 at 37° C. On the day of the assay, 10 mM stock solutions of test compounds were first diluted into 3 mM solutions with 100% DMSO. Well-mixed compound solutions (15 μL) were transferred to the next wells containing 30 μL of 100% DMSO, and repeated until a 9-concentration 3-fold serial dilution was made (starting assay concentration of 10 μM). Test compounds (132.5 nL) were directly dispensed into the assay plates containing cells. The plates were shaken for 15 seconds at 300 rpm, centrifuged, and incubated in a humidified atmosphere of 5% CO2 at 37° C. for 5 days. On day 5, assay plates and their contents were equilibrated to room temperature for approximately 30 minutes. CellTiter-Glo® 2.0 Reagent (25 μL) was added, and plate contents were mixed for 2 minutes on an orbital shaker before incubation at room temperature for 10 minutes. Luminescence was measured using the PerkinElmer Enspire. Data were normalized by the following: (Sample signal/Avg. DMSO)*100. The data were fit using a four-parameter logistic fit.

[4] = test system: SW1573; details: Canon et al., Nature 575:217-223 (2019); cited from earlier work
[5] = ester bond; 18-membered ring; EDCI/HOBT/DIPEA; DCM; 6.8 mM

K-Ras G13C, sequence (P01116 1-188 isoform P01116-2 G13C): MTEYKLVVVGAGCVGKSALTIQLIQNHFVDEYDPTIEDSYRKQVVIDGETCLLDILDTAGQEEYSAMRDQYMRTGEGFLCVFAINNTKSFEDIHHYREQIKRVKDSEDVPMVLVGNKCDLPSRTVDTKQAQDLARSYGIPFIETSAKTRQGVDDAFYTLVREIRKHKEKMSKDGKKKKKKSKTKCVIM
K-Ras G13C, sequence (P62937 whole entry): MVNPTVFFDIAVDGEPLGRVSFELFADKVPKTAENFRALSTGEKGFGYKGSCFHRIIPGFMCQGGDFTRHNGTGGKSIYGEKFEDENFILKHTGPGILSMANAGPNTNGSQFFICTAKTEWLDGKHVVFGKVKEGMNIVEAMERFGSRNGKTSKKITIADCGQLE
T1 sequence (P01116 1-188 isoform P01116-2 G12C): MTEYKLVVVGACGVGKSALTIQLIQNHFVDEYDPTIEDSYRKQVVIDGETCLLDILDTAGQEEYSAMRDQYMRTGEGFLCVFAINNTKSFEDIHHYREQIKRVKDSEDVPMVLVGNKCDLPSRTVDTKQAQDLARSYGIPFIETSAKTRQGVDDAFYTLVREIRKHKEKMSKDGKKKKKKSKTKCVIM
T1 sequence (P62937 whole entry): as the sequence (P62937 whole entry) above

IC50 [1]: > 1.5 µM
Compound: CCn1c(-c2cccnc2[C@H](C)OC)c2c3cc(ccc31)N1CCS[C@@H](C[C@H](NC(=O)[C@@H](COC3CN(C(=O)C#CC(C)(C)N(C)C)C3)N(C)C)C(=O)N3CCC[C@H](N3)C(=O)OCC(C)(C)C2)C1 (atropisomer, axis not shown) [Example A171]

IC50 [2]: > 1 µM | IC50 [3]: > 1 µM
Compound: CCn1c(-c2cccnc2[C@H](C)OC)c2c3cc(ccc31)C1=CCCN(C1)C[C@H](NC(=O)[C@H](C(C)C)N(C)C(=O)N1CCC3(CCN(C(=O)/C=C/CN(C)C)C3)CC1)C(=O)N1CCC[C@H](N1)C(=O)OCC(C)(C)C2 (atropisomer, axis not shown) [Example A192]

IC50 [1]: > 1.5 µM
Compound: CCn1c(-c2cccnc2[C@H](C)OC)c2c3cc(ccc31)N1CCS[C@@H](C[C@H](NC(=O)[C@@H](COC3CN(C(=O)C#CC(C)(C)N(C)C)C3)C(C)C)C(=O)N3CCC[C@H](N3)C(=O)OCC(C)(C)C2)C1 (atropisomer, axis not shown) [Example A175]

Further lines, the compound ahead of its results:

Compound: CCn1c(-c2cccnc2[C@H](C)OC)c2c3cc(ccc31)-c1cccc(c1)C[C@H](NC(=O)[C@@H](COC1CN(C(=O)C#CC(C)(C)N(C)C)C1)N(C)C)C(=O)N1CCC[C@H](N1)C(=O)OCC(C)(C)C2 (atropisomer, axis not shown) [Example A169]
IC50 [1]: > 1.5 µM

Compound: C=CC(=O)N1CCN(c2nc(=O)n(-c3c(C)ccnc3C(C)C)c3nc(-c4c(O)cccc4F)c(F)cc23)[C@@H](C)C1 [AMG510]
sensitivity of cell line SW1573 [4]: insensitive

Compound: CCn1c(-c2cccnc2[C@H](C)OC)c2c3cc(ccc31)N1CCO[C@@H](C[C@H](NC(=O)[C@H](C(C)C)N(C)C(=O)N3CCC4(CC3)CN(C(=O)/C=C/CF)C4)C(=O)N3CCC[C@H](N3)C(=O)OCC(C)(C)C2)C1 (atropisomer, axis not shown) [Example A128]
IC50 [2]: > 1 µM | IC50 [3]: > 1 µM

Compound: tert-butyl ((6^3S,4S,Z)-1^1-ethyl-1^2-(2-((S)-1-methoxyethyl)pyridin-3-yl)-10,10-dimethyl-5,7-dioxo-6^1,6^2,6^3,6^4,6^5,6^6-hexahydro-1^1H-8-oxa-2(5,3)-oxadiazola-1(5,3)-indola-6(1,3)-pyridazinacycloundecaphane-4-yl)carbamate
ring closure, isolated yield [5]: 18%
